From patent US20150374784A1, “COMPOSITIONS AND METHODS FOR REDUCING GERM CELL DEATH” (Los Angeles Biomedical Research Institute at Harbor-UCLA …, priority 2014, published 2015)
Peptide text beside a SMILES is read from it.

Assays:
in vivo = conditions: male, C57BL/6J, mouse, sc, 10 mg/kg BW
Description: The objective of this study was to investigate whether HNG has protective effect on sperm output after multiple doses of CP in mice. Thirty adult male mice (C57BL/6J) were randomized into 4 groups: 1) 5 as control; 2) 5 received daily subcutaneously injection of HNG (10 mg/kg BW); 3) 10 were given 6 doses of CP (150 mg/kg BW) intraperitoneally at 5-day intervals; 4) 10 received both HNG and CP. All mice were killed at 28 days. Plasma HNG and IGF-1 levels were measured by ELISAs. The cauda epididymal sperm count was performed using a hemocytometer.

B16 melanoma cells = assay type: cell-based
Description: Furthermore, the autophagy induction of humanin may be related to its apparent effects of enhancing longevity observed in other systems.

male germ cells = experiment: TMZ-induced male germ cell apoptosis in SCID mice (TUNEL, Apoptosis Index); assay type: in vivo, mouse; conditions: 24 hours after last injection; TMZ 50 mg/Kg BW/day X 5 days; HNG 5 mg/Kg BW/day
Description: Onco-infertility is a major concern of cancer survivors. In this study, it was investigated whether HNG will prevent chemotherapy (Temozolomide, TMZ, an alkylating agent used clinically to treat brain tumors) induced male germ cell apoptosis in SCID mice bearing subcutaneous implants of human medulloblastoma. DAOY human pediatric medulloblastoma cells ([…] cells/animal) were injected subcutaneously into the right flank of 7-week old male SCID mice. After 3 weeks to allow tumor growth, each group of mice (n=4 to 5/group) received one of the following treatments: 1) vehicle (control); 2) HNG intra-peritoneal (IP) injection (HNG, 5 mg/Kg BW/day, 3 days pretreatment+5 days treatment); 3) TMZ IP injection (TMZ, 50 mg/Kg BW/day X 5 days); 4) TMZ and HNG IP injections (TMZ+HNG). Mice were sacrificed 24 hours after the last injection, subcutaneous tumors were dissected and weighed (FIG. 26) and male germ cell apoptosis was assessed by TUNEL staining and quantified (Apoptosis Index, AI, number of apoptotic germ cell/Sertoli cell, FIG. 27). […] HNG ameliorated TMZ-induced germ cell apoptosis without affecting the chemotherapeutic effect on transplanted medulloblastoma tumor in an immunocompromised mouse model.

Leydig cells = experiment: Testosterone of cultured Leydig cells treated with ketoconazole; assay type: cell-based, rat; conditions: KTZ 10 mcg/ml, 4 hours, 34° C.
Description: Leydig cells were isolated based on a previously described procedure (Gao, et al., 1996; Klinefelter, et al., 1987; Salva, et al., 2001). Briefly, the testes were decapsulated, and then dissociated with collagenase, dispase, DNase and shaking for 15 min at 34° C. The seminiferous tubules were removed by filtration through 40 μm nylon mesh (BD Falcon, Franklin Lakes, N.J.). Leydig cells were then harvested after centrifugation and purified using a Percoll gradient (GE Healthcare, Uppsala, Sweden) and centrifugation (60 minutes at 20,000 g at 4° C.). Enriched Leydig cells were harvested at densities between 1.065 (red) and 1.075 (blue) g/cm^3 from the percoll gradient. These Leydig cells were washed by diluting the percoll and excluding residual germ cells and other cells using a BSA density gradient with centrifugation. The purity of the Leydig cells was >90%, as determined by histochemical staining for 3β-hydroxysteroid dehydrogenase. The cell viability, as assessed by trypan blue exclusion, was greater than 90%. […]
Testosterone concentrations in plasma, testes, and culture medium were measured by a previously described radioimmunoassay (Lue, et al., 2010) with a minimal detection limit of 0.1 ng/ml. […]

Q: Which results are given for `CC[C@H](C)[C@H](NC(=O)[C@H](CCC(=O)O)NC(=O)CNC(=O)[C@@H](NC(=O)[C@H](CC(C)C)NC(=O)[C@H](CC(C)C)NC(=O)[C@H](CC(C)C)NC(=O)[C@H](CC(C)C)NC(=O)[C@H](CS)NC(=O)[C@H](CO)NC(=O)[C@H](Cc1ccccc1)NC(=O)CNC(=O)[C@H](CCCNC(=N)N)NC(=O)[C@@H]1CCCN1C(=O)[C@H](C)NC(=O)[C@@H](N)CCSC)[C@@H](C)O)C(=O)N[C@@H](CC(=O)O)C(=O)N[C@@H](CC(C)C)C(=O)N1CCC[C@H]1C(=O)N[C@H](C(=O)N[C@@H](CCCCN)C(=O)N[C@@H](CCCNC(=N)N)C(=O)N[C@@H](CCCNC(=N)N)C(=O)N[C@@H](C)C(=O)O)C(C)C` [HNG] (H-MAPRGFSCLLLLTGEIDLPVKRRA-OH; N-terminus and C-terminus assumed)?
A: level at 672 h (in vivo): 80.8 ± 7.8 ng/mL; cytotoxicity of combined treatment versus doxorubicin treatment alone (B16 melanoma cells): additive effect on the cytotoxicity

Q: With `Cn1nnc2c(C(N)=O)ncn2c1=O` [TMZ, Temozolomide] as the compound, how does the “Apoptosis Index (AI), apoptotic germ cell/Sertoli cell, early+late stages” value (male germ cells) read?
A: 0.116±0.009

Q: What about the “Apoptosis Index (AI), apoptotic germ cell/Sertoli cell, middle stages” value (male germ cells) of the same compound?
A: 0.058±0.006

Q: Which “testosterone levels of cultured Leydig cells” value (Leydig cells) does the source give for `CC(=O)N1CCN(c2ccc(OCC3COC(Cn4ccnc4)(c4ccc(Cl)cc4Cl)O3)cc2)CC1` (centres unmarked) [KTZ, ketoconazole, reference compound] here?
A: lowered the testosterone levels significantly
